These compounds were tested against BRD4 protein (Homo sapiens, UniProt O60885) (assay: FRET assay, half maximal inhibitory concentration (IC50)). Conditions: BRD4 protein 50 nM, Biotin-H4KAc4 peptide 12.5 nM; List of Classification.
Type: binding
Method in brief: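 Acetylated histone H4 peptide binding (biotin-H4KAc4, 12.5 nM final) to BRD4 (50 nM final) detected by TR-FRET between streptavidin cryptate (2.4 nM) and GST-XL665 antibody (10 nM) in KF/BSA. Buffer: HEPES pH 7.5, NaCl, CHAPS. Compound dilutions from 50 μM in 12.5% DMSO were preincubated with protein for 30 min. Variable-slope IC50.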

IC50 [nM] | SMILES
< 200 | Cc1cc(O)nc2ccc(NC(=O)c3cc(-c4ccoc4)ccc3N3CCOCC3)cc12 [Compound-167, 5-(3-furyl)-N-(2-hydroxy-4-methyl-6-quinolyl)-2-morpholino-benzamide]
< 200 | Cc1cc(O)nc2ccc(NC(=O)c3cc(C(C)O)ccc3N3CCOCC3)cc12 (centres unmarked) [Compound-168, N-(2-hydroxy-4-methylquinolin-6-yl)-5-(1-hydroxyethyl)-2-morpholinobenzamide]
< 200 | COc1cc(NC(=O)c2cc(-c3cnn(C)c3)cnc2N2CCOCC2)cc2c(C)cc(O)nc12 [Compound-169, N-(2-hydroxy-8-methoxy-4-methylquinolin-6-yl)-5-(1-methyl-1H-pyrazol-4-yl)-2-morpholinonicotinamide]
< 200 | COc1cc2nc(O)cc(C)c2cc1NC(=O)c1cc(-c2cnn(C)c2)cnc1N1CCOCC1 [Compound-170, N-(2-hydroxy-7-methoxy-4-methylquinolin-6-yl)-5-(1-methyl-1H-pyrazol-4-yl)-2-morpholinonicotinamide]
< 200 | Cc1cc2nc(O)cc(C)c2cc1NC(=O)c1cc(-c2cnn(C)c2)cnc1N1CCOCC1 [Compound-171, N-(2-hydroxy-4,7-dimethylquinolin-6-yl)-5-(1-methyl-1H-pyrazol-4-yl)-2-morpholinonicotinamide]
< 200 | Cc1cc(=O)[nH]c2ccc(NC(=O)c3cc(S(=O)(=O)N(C)C)ccc3N3CC[C@@H](F)C3)cc12 [Compound-172, (R)-5-(N,N-dimethylsulfamoyl)-2-(3-fluoropyrrolidin-1-yl)-N-(4-methyl-2-oxo-1,2-dihydroquinolin-6-yl)benzamide]
< 200 | Cc1cc(=O)[nH]c2ccc(NC(=O)c3cc(S(=O)(=O)N(C)C)ccc3N3CC[C@H](F)C3)cc12 [Compound-173, (S)-5-(N,N-dimethylsulfamoyl)-2-(3-fluoropyrrolidin-1-yl)-N-(4-methyl-2-oxo-1,2-dihydroquinolin-6-yl)benzamide]
500 to 1000 | Cc1cc(O)nc2ccc(NC(=O)c3cc(-c4ccoc4)cnc3N3CCOCC3)cc12 [Compound-174, 5-(furan-3-yl)-N-(2-hydroxy-4-methylquinolin-6-yl)-2-morpholinonicotinamide]
< 200 | Cc1cc(O)nc2ccc(NC(=O)c3cc(-c4cnn(C)c4)cnc3N3CCOCC3)cc12 [Compound-175, N-(2-hydroxy-4-methylquinolin-6-yl)-5-(1-methyl-1H-pyrazol-4-yl)-2-morpholinonicotinamide]
< 200 | Cc1cc(O)nc2ccc(NC(=O)c3cc(-c4cnoc4)cnc3N3CCOCC3)cc12 [Compound-176, N-(2-hydroxy-4-methylquinolin-6-yl)-5-(isoxazol-4-yl)-2-morpholinonicotinamide]
< 200 | Cc1noc(C)c1-c1cnc(N2CCOCC2)c(C(=O)Nc2ccc3nc(O)cc(C)c3c2)c1 [Compound-177, 5-(3,5-dimethylisoxazol-4-yl)-N-(2-hydroxy-4-methylquinolin-6-yl)-2-morpholinonicotinamide]
500 to 1000 | Cc1cc(O)nc2ccc(NC(=O)c3cc(-c4ccoc4)cnc3N3CC4(COC4)C3)cc12 [Compound-178, 5-(furan-3-yl)-N-(2-hydroxy-4-methylquinolin-6-yl)-2-(2-oxa-6-azaspiro[3.3]heptan-6-yl)nicotinamide]
< 200 | Cc1cc(O)nc2c(C)cc(NC(=O)c3cc(-c4ccoc4)cnc3N3CCOCC3)cc12 [Compound-179, 5-(furan-3-yl)-N-(2-hydroxy-4,8-dimethylquinolin-6-yl)-2-morpholinonicotinamide]
< 200 | Cc1nnc(-c2ccc(N3CCOCC3)c(C(=O)Nc3ccc4nc(O)cc(C)c4c3)c2)o1 [Compound-180, N-(2-hydroxy-4-methylquinolin-6-yl)-5-(5-methyl-1,3,4-oxadiazol-2-yl)-2-morpholinobenzamide]
< 200 | Cc1cc(O)nc2ccc(NC(=O)c3cc(-c4nnn[nH]4)ccc3N3CCOCC3)cc12 [Compound-181, N-(2-hydroxy-4-methylquinolin-6-yl)-2-morpholino-5-(1H-tetrazol-5-yl)benzamide]
< 200 | Cc1cc(O)nc2ccc(NC(=O)c3cc(C(=O)O)ccc3N3CCOCC3)cc12 [Compound-182, 3-(2-hydroxy-4-methylquinolin-6-ylcarbamoyl)-4-morpholinobenzoic acid]
500 to 1000 | Cc1cc(O)nc2ccc(NC(=O)c3cc(C#N)cnc3N3CCOCC3)cc12 [Compound-183, 5-cyano-N-(2-hydroxy-4-methylquinolin-6-yl)-2-morpholinonicotinamide]
500 to 1000 | Cc1cc(O)nc2ccc(NC(=O)c3cc(Br)cnc3N3CCC(F)C3)cc12 (centres unmarked) [Compound-184, 5-bromo-2-(3-fluoropyrrolidin-1-yl)-N-(2-hydroxy-4-methylquinolin-6-yl) nicotinamide]
< 200 | Cc1cc(O)nc2ccc(NC(=O)c3cc(N4CCN(C)CC4)cnc3N3CCOCC3)cc12 [Compound-185, N-(2-hydroxy-4-methylquinolin-6-yl)-5-(4-methylpiperazin-1-yl)-2-morpholinonicotinamide]

IC50 [nM] | SMILES
< 200 | Cc1cc(O)nc2ccc(NC(=O)c3cc(N4CCOCC4)cnc3N3CCOCC3)cc12 [Compound-186, N-(2-hydroxy-4-methylquinolin-6-yl)-2,5-dimorpholinonicotinamide]
< 200 | Cc1cc2nc(O)cc(C)c2cc1NC(=O)c1cc(-c2c(C)noc2C)cnc1N1CCOCC1 [Compound-188, 5-(3,5-dimethylisoxazol-4-yl)-N-(2-hydroxy-4,7-dimethylquinolin-6-yl)-2-morpholinonicotinamide]
< 200 | COc1cc(NC(=O)c2cc(-c3ccoc3)cnc2N2CCOCC2)cc2c(C)cc(O)nc12 [Compound-189, 5-(furan-3-yl)-N-(2-hydroxy-8-methoxy-4-methylquinolin-6-yl)-2-morpholinonicotinamide]
1000 to 10000 | COc1cc2nc(O)cc(C)c2cc1NC(=O)c1cc(-c2ccoc2)cnc1N1CCOCC1 [Compound-190, 5-(furan-3-yl)-N-(2-hydroxy-7-methoxy-4-methylquinolin-6-yl)-2-morpholinonicotinamide]
< 200 | Cc1cc2nc(O)cc(C)c2cc1NC(=O)c1cc(-c2ccoc2)cnc1N1CCOCC1 [Compound-191, 5-(furan-3-yl)-N-(2-hydroxy-4,7-dimethylquinolin-6-yl)-2-morpholinonicotinamide]
< 200 | Cc1cc2nc(O)cc(C)c2cc1NC(=O)c1cc(-c2nnn(C)n2)cnc1N1CCOCC1 [Compound-195, N-(2-hydroxy-4,7-dimethylquinolin-6-yl)-5-(2-methyl-2H-tetrazol-5-yl)-2-morpholinonicotinamide]
> 10000 | Cc1cc2nc(O)cc(C)c2cc1NC(=O)c1cc(-c2nnnn2C)cnc1N1CCOCC1 [Compound-196, N-(2-hydroxy-4,7-dimethylquinolin-6-yl)-5-(1-methyl-1H-tetrazol-5-yl)-2-morpholinonicotinamide]
500 to 1000 | Cc1cc(O)nc2ccc(NC(=O)c3cc(C#N)ncc3N3CCC(F)C3)cc12 (centres unmarked) [Compound-197, 2-cyano-5-(3-fluoropyrrolidin-1-yl)-N-(2-hydroxy-4-methylquinolin-6-yl) isonicotinamide]
< 200 | Cc1cc(O)nc2ccc(NC(=O)c3cc(S(=O)(=O)N(C)C)cnc3N3CCC(F)C3)cc12 (centres unmarked) [Compound-199, 5-(N,N-dimethylsulfamoyl)-2-(3-fluoropyrrolidin-1-yl)-N-(2-hydroxy-4-methylquinolin-6-yl)nicotinamide]
200 to 500 | Cc1cc(-c2cnc(N3CCOCC3)c(C(=O)Nc3cc4c(C)cc(O)nc4cc3C)c2)on1 [Compound-200, N-(2-hydroxy-4,7-dimethylquinolin-6-yl)-5-(3-methylisoxazol-5-yl)-2-morpholinonicotinamide]
< 200 | COc1cc2nc(O)cc(C)c2cc1NC(=O)c1cc(-c2nnc(C)o2)ccc1N1CCOCC1 [Compound-201, N-(2-hydroxy-7-methoxy-4-methylquinolin-6-yl)-5-(5-methyl-1,3,4-oxadiazol-2-yl)-2-morpholinobenzamide]
< 200 | Cc1cc(O)nc2ccc(NC(=O)c3cc(C(N)=O)ncc3N3CCCC3)cc12 [Compound-202, N4-(2-hydroxy-4-methylquinolin-6-yl)-5-(pyrrolidin-1-yl)pyridine-2,4-dicarboxamide]
< 200 | Cc1cc(O)nc2ccc(NC(=O)c3cc(-c4nnn[nH]4)ncc3N3CCCC3)cc12 [Compound-203, N-(2-hydroxy-4-methylquinolin-6-yl)-5-(pyrrolidin-1-yl)-2-(1H-tetrazol-5-yl) isonicotinamide]
< 200 | Cc1cc(O)nc2ccc(NC(=O)c3cc(C(C)O)ccc3N3CCCC3c3ccccn3)cc12 (centres unmarked) [Compound-206, N-(2-hydroxy-4-methylquinolin-6-yl)-5-(1-hydroxyethyl)-2-(2-(pyridin-2-yl)pyrrolidin-1-yl)benzamide]
< 200 | CC(=O)c1cc(C(=O)Nc2ccc3nc(O)cc(C)c3c2)c(N2CCOCC2)cn1 [Compound-207, 2-acetyl-N-(2-hydroxy-4-methylquinolin-6-yl)-5-morpholinoisonicotinamide]
< 200 | Cc1cc(O)nc2ccc(NC(=O)c3cc(C(C)O)ncc3N3CCOCC3)cc12 (centres unmarked) [Compound-208, N-(2-hydroxy-4-methylquinolin-6-yl)-2-(1-hydroxyethyl)-5-morpholinoisonicotinamide]
< 200 | CC(=O)c1cc(C(=O)Nc2ccc3nc(O)cc(C)c3c2)c(N2CCC(F)C2)cn1 (centres unmarked) [Compound-209]
< 200 | Cc1cc(O)nc2ccc(NC(=O)c3cc(C(C)O)ncc3N3CCC(F)C3)cc12 (centres unmarked) [Compound-210, 5-(3-fluoropyrrolidin-1-yl)-N-(2-hydroxy-4-methylquinolin-6-yl)-2-(1-hydroxyethyl) isonicotinamide]
200 to 500 | Cc1cc(O)nc2ccc(NC(=O)c3cc(C#N)ncc3N3CCCC3CN(C)C)cc12 (centres unmarked) [Compound-211]

— patent publication US10752640B2, “Compounds active towards bromodomains” (NUEVOLUTION A/S, priority 2014, dated 2020)
